Data taken from US5602156A, “Method for inhibiting metalloproteinase expression” (The United States of America as represented by the …, priority 1994, dated 1997).
Entries after “also recorded” stand apart in the source; their conditions may differ.

Tests used:
MMP-2 [1] = assay: Gelatin zymography of conditioned media from human cancer cell lines (gelatinase activity); type: cell-based; settings: for reduction of activated MMP-2: 20 μM compound 1
Procedure: (§1) Conditioned media for zymogram and Western blot analysis were produced under serum-free conditions. Cells (2 million) were plated in 25 cm^2 flasks in serum-containing medium and cultured overnight. Serum-containingmedium was removed and the cell monolayers were washed twice with DMEM/ITS (DMEM containing insulin (5 μg/mL), transferrin (5 μg/mL), and selenium (5 ng/mL)). The resultant cells were fed with 3 mL of DMEM/ITS and additives as described in the Examples for two 24 hour periods. Conditioned media samples were collected at 24 hours and cells were refed with fresh DMEM/ITS containing the described additives for an additional 24 hours. Conditioned media samples were centrifuged to remove cells and debris then frozen at -20° C. until use. Freeze and thaw cycles of the conditioned media were limited to no more than two.
Quantitation of the effect was evaluated by laser densitometry of the resultant zymograms.
Aliquots of conditioned medium (15 μL) were electrophoresed on gelatin-containing 10% PAGE gels under nonreducing but denaturing conditions. These conditions allow the different gelatin-degrading species (MMPs) to separate by size. […] Bands of clearing, seen after Coomassie blue staining correspond to areas of gelatinase activity.
OVCAR3 conditioned media samples were concentrated 10-fold prior to zymography.
Known concentrated conditioned medium from HT1080 cells was used for identification of the gelatinase species as marked in FIG. 1A: 92 kDa, gelatinase B/MMP-9; 72 kDa, gelatinase A/MMP-2 latent form; 65 kDa intermediate and 62 kDa activated forms of MMP-2. The activated form of MMP-2 results from cleavage of the amino terminal domain.
Lane 1 corresponds to cells treated only with 0.05% DMSO as a control.
Quantitation of the zymograms in FIGS. 1A-1C were carded out using laser densitometry.
The effect of structural analogs on the gelatinase activity of A2058 cells was similarly evaluated.

MMP-2 [2] = assay: Gelatin zymography of HT1080 cells, compound 1 with or without TGF-β1 (densitometry); type: cell-based, human; settings: control band = 100%
Procedure: as §1
(§2) A2058 human melanoma cells, human HT1080 fibrosarcoma cells, and OVCAR3 human ovarian cancer cells were incubated with increasing concentrations of compound 1 (0.2-20 μM) or DMSO control (0.05%) and subjected to gelatin zymography. Aliquots of conditioned medium (15 μL) were electrophoresed on gelatin-containing 10% PAGE gels under nonreducing but denaturing conditions. These conditions allow the different gelatin-degrading species (MMPs) to separate by size. The enzymes renature after removal of the SDS by incubation of the gel with 2.5 % Triton X-100, and degrade the gelatin substrate present in the polyacrylamide gel upon overnight incubation in low salt collagenase buffer. Bands of clearing, seen after Coomassie blue staining correspond to areas of gelatinase activity.
(§3) A2058 and HT1080 cells were incubated with compound 1 (2 μM), with or without TGF-β1 (5 ng/mL) for 24 and 48 hours prior to harvest of conditioned media. Aliquots were subjected to gelatin zymography as described in Example 1. Known concentrated conditioned medium from HT1080 cells was used for identification of the gelatinase species (92 kDa, gelatinase B/MMP-9; 72 kDa, gelatinase A/MMP-2 latent form; 65 kDa intermediate and 62 kDa activated forms of MMP-2).
(§4) Lane 1 is the control resulting from treatment of the cells with 0.1% DMSO. Lanes 2 and 3 correspond to those cells which are treated with 2 μM compound 1 in the absence of TGF-β1 for 24 and 48 hours, respectively. Lane 4 corresponds to cells which have been treated with TGF-β1 in the absence of compound 1. Lane 5 corresponds to cells which have been treated with TGF-β1 for 48 hours with compound 1 being added to the incubation mixture for the final 24 hours. Lane 6 corresponds to cells which have been treated for 48 hours with both TGF-β1 and compound 1.
(§5) *The control band was defined as 100% gelatinase activity and the other
(§6) bands were normalized to it. Numbers reflect triplicate measurements from
(§7) each zymogram band of representative zymograms. Standard deviations, not

MMP-9 = assay: Gelatin zymography of HT1080 cells, compound 1 with or without TGF-β1 (densitometry), 92 kDa; type: cell-based, human; settings: control band = 100%
Procedure: as §1, §2, §3, §4, §5, §6, §7

MMP-2 [3] = assay: Gelatin zymography of A2058 cells, compound 1 with or without TGF-β1 (densitometry); type: cell-based, human; settings: control band = 100%
Procedure: as §1, §2, §3, §4, §5, §6, §7

[4] = tested on: receptor-operated and voltage-gated calcium influx; settings: cited from earlier work
[5] = with TGF-β, 2 μM compound 1, 24 hr
[6] = with TGF-β, 2 μM compound 1, 48 hr
[7] = without TGF-β, 2 μM compound 1, 24 hr
[8] = without TGF-β, 2 μM compound 1, 48 hr
[9] = with TGF-β1, 2 μM compound 1, 24 hr
[10] = with TGF-β1, 2 μM compound 1, 48 hr
[11] = without TGF-β1, 2 μM compound 1, 24 hr
[12] = without TGF-β1, 2 μM compound 1, 48 hr

NC(=O)c1nnn(Cc2cc(Cl)c(C(=O)c3ccc(Cl)cc3)c(Cl)c2)c1N [Compound 1, 5-amino-l-(4-(4-chlorobenzoyl)-3,5-dichlorobenzyl)-1,2,3-triazole-4-carboxamide]
MMP-2 activity (MMP-2 [1]; A2058, 10 μM (FIG. 1E)): reduced MMP-2 activity | reduction of activated MMP-2 (MMP-2 [1]; A2058): almost complete reduction | reduction of activated MMP-2 (MMP-2 [1]; HT1080): 75% | shift of MMP species (MMP-2 [1]; HT1080 cell line): shift to activated species with subsequent decrease in total activity | reduction of activated MMP-2 (MMP-2 [1]; OVCAR3): almost complete reduction | reduction in activity of all MMP-2 species (MMP-2 [1]; all cell lines (HT1080, A2058, OVCAR3), normalized to DMSO control): greater than 80% | reduction of MMP activity (MMP-2 [1]; three human cancer cell lines, 0.2-20 μM): dose dependent reduction of MMP activity | inhibition of MMP-2 gelatinase activity (FIG. 1) (MMP-2 [1]; zymograms of FIG. 1): dose-dependent inhibition | gelatinase activity, 65 + 62 kDa (MMP-2 [2]; [5]): 194% | gelatinase activity, 72 kDa (MMP-2 [2]; [5]): 52% | gelatinase activity, 65 + 62 kDa (MMP-2 [2]; [6]): 116% | gelatinase activity, 72 kDa (MMP-2 [2]; [6]): 10% | gelatinase activity, 65 + 62 kDa (MMP-2 [2]; [7]): 125% | gelatinase activity, 72 kDa (MMP-2 [2]; [7]): 10% | gelatinase activity, 65 + 62 kDa (MMP-2 [2]; [8]): 24% | gelatinase activity, 72 kDa (MMP-2 [2]; [8]): 0.6% | gelatinase activity, 92 kDa (MMP-9; [5]): 78% | gelatinase activity, 92 kDa (MMP-9; [6]): 14% | gelatinase activity, 92 kDa (MMP-9; [7]): 73% | gelatinase activity, 92 kDa (MMP-9; [8]): 12% | gelatinase activity, 65 + 62 kDa (MMP-2 [3]; [9]): 0% | gelatinase activity, 72 kDa (MMP-2 [3]; [9]): 44% | gelatinase activity, 65 + 62 kDa (MMP-2 [3]; [10]): 0% | gelatinase activity, 72 kDa (MMP-2 [3]; [10]): 36% | gelatinase activity, 65 + 62 kDa (MMP-2 [3]; [11]): 14% | gelatinase activity, 72 kDa (MMP-2 [3]; [11]): 84% | gelatinase activity, 65 + 62 kDa (MMP-2 [3]; [12]): 0% | gelatinase activity, 72 kDa (MMP-2 [3]; [12]): 45% | calcium influx inhibition [4]: inhibits receptor-operated and voltage-gated calcium influx; also recorded: inhibit receptor-stimulated and voltage-gatedcalcium entry across cell membranes
